Source: paper PMC5218480 (PLoS ONE, 2017)

System: MV-4-11 cells
Experiment: Gene expression microarray analysis (Affymetrix PrimeView) and GSEA
Format: cell-based, human
Set-up: RFU PODN (11730768_x_at) / Fold change /veh PODN (11730768_x_at) / RFU LINC00158 (11744669_a_at) / Fold change /veh LINC00158 (11744669_a_at) / RFU DUSP10 (11751237_a_at) / Fold change /veh DUSP10 (11751237_a_at) / RFU ID3 (11757404_x_at) / Fold change /veh ID3 (11757404_x_at) / RFU PLEKHG5 (11737974_s_at) / Fold change /veh PLEKHG5 (11737974_s_at) / RFU LRRC4B (11730491_at) / Fold change /veh LRRC4B (11730491_at) / RFU GIMAP4 (11747438_a_at) / Fold change /veh GIMAP4 (11747438_a_at) / RFU KRT8 (11758183_x_at) / Fold change /veh KRT8 (11758183_x_at) / RFU CNN1 (11734310_a_at) / Fold change /veh CNN1 (11734310_a_at) / RFU VPS37D (11726825_at) / Fold change /veh VPS37D (11726825_at) / RFU C10orf10 (11716522_x_at) / Fold change /veh C10orf10 (11716522_x_at) / RFU KIR2DL2 /// KIR2DL4 /// KIR2DL5A /// KIR2DL5B /// KIR2DS1 /// KIR2DS2 /// KIR2DS3 /// KIR2DS4 /// KIR3DL3 /// KIR3DL3 /// KIR3DS1 (11738374_at) / Fold change /veh KIR2DL2 /// KIR2DL4 /// KIR2DL5A /// KIR2DL5B /// KIR2DS1 /// KIR2DS2 /// KIR2DS3 /// KIR2DS4 /// KIR3DL3 /// KIR3DL3 /// KIR3DS1 (11738374_at) / RFU C1QL1 (11718748_at) / Fold change /veh C1QL1 (11718748_at) / RFU TMPRSS4 (11747572_a_at) / Fold change /veh TMPRSS4 (11747572_a_at) / RFU HAMP (11756126_x_at) / Fold change /veh HAMP (11756126_x_at) / RFU RNFT2 (11725882_a_at) / Fold change /veh RNFT2 (11725882_a_at) / RFU NR4A2 (11747474_a_at) / Fold change /veh NR4A2 (11747474_a_at) / RFU ABCC12 (11746883_a_at) / Fold change /veh ABCC12 (11746883_a_at) / RFU TMEM136 (11760407_x_at) / Fold change /veh TMEM136 (11760407_x_at) / RFU CLDN22 /// WWC2 (11732394_at) / Fold change /veh CLDN22 /// WWC2 (11732394_at) / RFU HLA-DPB1 (11760878_x_at) / Fold change /veh HLA-DPB1 (11760878_x_at) / RFU SPINT1 (11716480_a_at) / Fold change /veh SPINT1 (11716480_a_at) / RFU GAP43 (11754022_s_at) / Fold change /veh GAP43 (11754022_s_at) / RFU A4GNT (11735810_at) / Fold change /veh A4GNT (11735810_at) / RFU PRB3 (11715151_x_at) / Fold change /veh PRB3 (11715151_x_at) / RFU TUBB4B (11761932_at) / Fold change /veh TUBB4B (11761932_at) / RFU CAPN14 (11732068_a_at) / Fold change /veh CAPN14 (11732068_a_at) / RFU TMCC2 (11721928_a_at) / Fold change /veh TMCC2 (11721928_a_at) / RFU IRGQ (11745062_a_at) / Fold change /veh IRGQ (11745062_a_at) / RFU FAM174B (11720279_a_at) / Fold change /veh FAM174B (11720279_a_at) / RFU TMPRSS4 (11748680_a_at) / Fold change /veh TMPRSS4 (11748680_a_at) / RFU FAM212B (11763350_a_at) / Fold change /veh FAM212B (11763350_a_at) / RFU PLEKHG5 (11743358_a_at) / Fold change /veh PLEKHG5 (11743358_a_at) / RFU ZSCAN30 (11745921_a_at) / Fold change /veh ZSCAN30 (11745921_a_at) / RFU CMKLR1 (11741424_a_at) / Fold change /veh CMKLR1 (11741424_a_at) / RFU LOC101060620 /// MAPK8IP1 (11723275_at) / Fold change /veh LOC101060620 /// MAPK8IP1 (11723275_at) / RFU SPTSSB (11747773_x_at) / Fold change /veh SPTSSB (11747773_x_at) / RFU PRSS12 (11739890_at) / Fold change /veh PRSS12 (11739890_at) / RFU BIN1 (11741810_x_at) / Fold change /veh BIN1 (11741810_x_at) / RFU WNT11 (11732464_a_at) / Fold change /veh WNT11 (11732464_a_at) / RFU C10orf10 (11716521_a_at) / Fold change /veh C10orf10 (11716521_a_at) / RFU C5orf56 (11738089_at) / Fold change /veh C5orf56 (11738089_at) / RFU CYB561 (11721691_x_at) / Fold change /veh CYB561 (11721691_x_at) / RFU ANKRD19P (11752326_a_at) / Fold change /veh ANKRD19P (11752326_a_at) / RFU OR2T12 /// OR2T33 /// OR2T8 (11738714_s_at) / Fold change /veh OR2T12 /// OR2T33 /// OR2T8 (11738714_s_at) / RFU VCAN (11748164_a_at) / Fold change /veh VCAN (11748164_a_at) / RFU JSRP1 (11732532_at) / Fold change /veh JSRP1 (11732532_at) / RFU KRTAP10-11 (11738290_x_at) / Fold change /veh KRTAP10-11 (11738290_x_at) / RFU MYO3A (11730013_a_at) / Fold change /veh MYO3A (11730013_a_at) / RFU EBF3 (11725865_a_at) / Fold change /veh EBF3 (11725865_a_at) / RFU CAMK2N1 (11719241_x_at) / Fold change /veh CAMK2N1 (11719241_x_at) / RFU C5orf56 (11738088_a_at) / Fold change /veh C5orf56 (11738088_a_at) / RFU OLFML3 (11715873_a_at) / Fold change /veh OLFML3 (11715873_a_at) / RFU LOC100653217 /// NTM (11731650_a_at) / Fold change /veh LOC100653217 /// NTM (11731650_a_at) / RFU MAPK11 (11762145_a_at) / Fold change /veh MAPK11 (11762145_a_at) / RFU FIZ1 (11724087_x_at) / Fold change /veh FIZ1 (11724087_x_at) / RFU OASL (11726364_x_at) / Fold change /veh OASL (11726364_x_at) / RFU SOX15 (11748057_x_at) / Fold change /veh SOX15 (11748057_x_at) / RFU CD79A (11719716_a_at) / Fold change /veh CD79A (11719716_a_at) / RFU HIST1H1D (11736915_at) / Fold change /veh HIST1H1D (11736915_at) / RFU CASKIN2 (11723855_a_at) / Fold change /veh CASKIN2 (11723855_a_at) / RFU LOC730098 (11760151_x_at) / Fold change /veh LOC730098 (11760151_x_at) / RFU OR4N2 (11742367_at) / Fold change /veh OR4N2 (11742367_at) / RFU PRRT2 (11749266_a_at) / Fold change /veh PRRT2 (11749266_a_at) / RFU SNX32 (11753110_a_at) / Fold change /veh SNX32 (11753110_a_at) / RFU CDHR5 (11726645_a_at) / Fold change /veh CDHR5 (11726645_a_at) / RFU RCAN1 (11760418_a_at) / Fold change /veh RCAN1 (11760418_a_at) / RFU FAM167A (11723789_a_at) / Fold change /veh FAM167A (11723789_a_at) / RFU FAM26E (11764081_at) / Fold change /veh FAM26E (11764081_at) / RFU ISYNA1 (11749810_s_at) / Fold change /veh ISYNA1 (11749810_s_at) / RFU ACY1 (11761880_at) / Fold change /veh ACY1 (11761880_at) / RFU 11764098_at / Fold change /veh 11764098_at / RFU SAMD14 (11745864_x_at) / Fold change /veh SAMD14 (11745864_x_at) / RFU NPB (11741838_a_at) / Fold change /veh NPB (11741838_a_at) / RFU TMPRSS6 (11731388_a_at) / Fold change /veh TMPRSS6 (11731388_a_at) / RFU KRTAP10-2 (11738614_at) / Fold change /veh KRTAP10-2 (11738614_at) / RFU ARHGAP8 /// PRR5-ARHGAP8 (11727945_x_at) / Fold change /veh ARHGAP8 /// PRR5-ARHGAP8 (11727945_x_at) / RFU KRTAP5-7 /// NADSYN1 (11734609_at) / Fold change /veh KRTAP5-7 /// NADSYN1 (11734609_at) / RFU RASL12 (11751679_a_at) / Fold change /veh RASL12 (11751679_a_at) / RFU CDKN2B (11736163_a_at) / Fold change /veh CDKN2B (11736163_a_at) / RFU PRF1 (11729649_at) / Fold change /veh PRF1 (11729649_at) / RFU, ZNF638 /// ZNF638-IT1 / Fold change vs veh, ZNF638 /// ZNF638-IT1 / RFU, PANK3 / Fold change vs veh, PANK3 / RFU, SH3YL1 / Fold change vs veh, SH3YL1 / RFU, ZEB2 / Fold change vs veh, ZEB2 / RFU, NRIP1 / Fold change vs veh, NRIP1 / RFU, PTTG1IP / Fold change vs veh, PTTG1IP / RFU, CAPN2 / Fold change vs veh, CAPN2 / RFU, MED14 / Fold change vs veh, MED14 / RFU, SNORA58 / Fold change vs veh, SNORA58 / RFU, C1orf63 / Fold change vs veh, C1orf63 / RFU, LRRFIP1 / Fold change vs veh, LRRFIP1 / RFU, NDUFAF7 / Fold change vs veh, NDUFAF7 / RFU, SLC12A2 / Fold change vs veh, SLC12A2 / RFU, IBTK / Fold change vs veh, IBTK / RFU, ESF1 / Fold change vs veh, ESF1 / Fold change vs veh, TMEM50B / RFU, TAOK1 / Fold change vs veh, TAOK1 / RFU, ACBD3 / Fold change vs veh, ACBD3 / RFU, TMA16 / Fold change vs veh, TMA16 / RFU, RWDD3 / Fold change vs veh, RWDD3 / RFU, BCAT1 / Fold change vs veh, BCAT1 / RFU, EDEM3 / Fold change vs veh, EDEM3 / RFU, TMEM33 / Fold change vs veh, TMEM33 / RFU, WDR75 / Fold change vs veh, WDR75 / RFU, AHCTF1 / Fold change vs veh, AHCTF1 / RFU, TFRC / Fold change vs veh, TFRC / RFU, ZDHHC17 / Fold change vs veh, ZDHHC17 / RFU, NOM1 / Fold change vs veh, NOM1 / RFU, ARL8B / Fold change vs veh, ARL8B / RFU, ZBTB11 / Fold change vs veh, ZBTB11 / RFU, TAMM41 / Fold change vs veh, TAMM41 / RFU, KIAA1704 /// LOC100996395 / Fold change vs veh, KIAA1704 /// LOC100996395 / RFU, ING1 / Fold change vs veh, ING1 / RFU, TRMT61B / Fold change vs veh, TRMT61B / RFU, FUBP3 / Fold change vs veh, FUBP3 / RFU, TP53 / Fold change vs veh, TP53 / RFU, TNKS2 / Fold change vs veh, TNKS2 / RFU, ZFP14 / Fold change vs veh, ZFP14 / RFU, ACTR2 / Fold change vs veh, ACTR2 / RFU, PPP3R1 / Fold change vs veh, PPP3R1 / RFU, PIK3R1 / Fold change vs veh, PIK3R1 / RFU, HNRNPA1 / Fold change vs veh, HNRNPA1 / RFU, RNF170 / Fold change vs veh, RNF170 / RFU, ZNF28 / Fold change vs veh, ZNF28 / RFU, RNGTT / Fold change vs veh, RNGTT / RFU, OGT / Fold change vs veh, OGT / RFU, BRD1 / Fold change vs veh, BRD1 / RFU, MARS / Fold change vs veh, MARS / RFU, ZNF655 / Fold change vs veh, ZNF655 / RFU, FAHD1 / Fold change vs veh, FAHD1 / RFU, BDP1 / Fold change vs veh, BDP1 / RFU, LRRCC1 / Fold change vs veh, LRRCC1 / RFU, ARID1A / Fold change vs veh, ARID1A / RFU, ZNF146 / Fold change vs veh, ZNF146 / RFU, ZNF330 / Fold change vs veh, ZNF330 / RFU, GPN3 / Fold change vs veh, GPN3 / RFU, C9orf123 / Fold change vs veh, C9orf123 / RFU, N4BP2L2 / Fold change vs veh, N4BP2L2 / RFU, ARFIP1 / Fold change vs veh, ARFIP1 / RFU, FAM179B / Fold change vs veh, FAM179B / RFU, BCL10 / Fold change vs veh, BCL10 / RFU, UHRF1BP1L / Fold change vs veh, UHRF1BP1L / RFU, BET1 / Fold change vs veh, BET1 / RFU, CNOT2 / Fold change vs veh, CNOT2 / RFU, ZNF268 / Fold change vs veh, ZNF268 / Fold change vs veh, ZNF507 / RFU, DGCR2 / Fold change vs veh, DGCR2 / RFU, WDSUB1 / Fold change vs veh, WDSUB1 / Fold change vs veh, HSP90B1 /// MIR3652 / RFU, ADSS / Fold change vs veh, ADSS / RFU, GK / Fold change vs veh, GK / RFU, ZNF148 / Fold change vs veh, ZNF148 / RFU, TAF9 / Fold change vs veh, TAF9 / RFU, SLC1A5 / Fold change vs veh, SLC1A5 / RFU, SLMO2 / Fold change vs veh, SLMO2 / RFU, ABCC4 / Fold change vs veh, ABCC4 / RFU, LOC101060439 /// RAP1B / Fold change vs veh, LOC101060439 /// RAP1B / RFU, RFX7 / Fold change vs veh, RFX7 / RFU, GTPBP10 / Fold change vs veh, GTPBP10 / RFU, CNEP1R1 / Fold change vs veh, CNEP1R1 / RFU, BIVM-ERCC5 /// ERCC5 / Fold change vs veh, BIVM-ERCC5 /// ERCC5 / RFU, ILF3 / Fold change vs veh, ILF3 / RFU 11762660_at / Fold change /veh 11762660_at / RFU VCAN (11757783_s_at) / Fold change /veh VCAN (11757783_s_at) / RFU DDX43 (11728927_at) / Fold change /veh DDX43 (11728927_at) / RFU KRT8 (11758188_x_at) / Fold change /veh KRT8 (11758188_x_at) / RFU NKD1 (11759106_at) / Fold change /veh NKD1 (11759106_at) / RFU SRD5A1 (11742802_a_at) / Fold change /veh SRD5A1 (11742802_a_at) / RFU TPSAB1 /// TPSB2 (11721975_s_at) / Fold change /veh TPSAB1 /// TPSB2 (11721975_s_at) / RFU GSTM3 (11746129_a_at) / Fold change /veh GSTM3 (11746129_a_at) / RFU IL23R (11737362_x_at) / Fold change /veh IL23R (11737362_x_at) / RFU TMEM51 (11727254_a_at) / Fold change /veh TMEM51 (11727254_a_at) / RFU PIWIL2 (11732686_x_at) / Fold change /veh PIWIL2 (11732686_x_at) / RFU ORM1 (11744905_x_at) / Fold change /veh ORM1 (11744905_x_at) / RFU CCDC152 (11743942_at) / Fold change /veh CCDC152 (11743942_at) / RFU ECM1 (11717891_a_at) / Fold change /veh ECM1 (11717891_a_at) / RFU IL23R (11748794_a_at) / Fold change /veh IL23R (11748794_a_at) / RFU TNFAIP8L3 (11732012_x_at) / Fold change /veh TNFAIP8L3 (11732012_x_at) / RFU MBOAT4 (11741988_at) / Fold change /veh MBOAT4 (11741988_at) / RFU 11764193_at / Fold change /veh 11764193_at / RFU TMEM53 (11763286_at) / Fold change /veh TMEM53 (11763286_at) / RFU MAGEB2 (11727129_at) / Fold change /veh MAGEB2 (11727129_at) / RFU TMEM200A (11744735_a_at) / Fold change /veh TMEM200A (11744735_a_at) / RFU CCDC152 (11751479_a_at) / Fold change /veh CCDC152 (11751479_a_at) / RFU FAM211A (11726209_a_at) / Fold change /veh FAM211A (11726209_a_at) / RFU RGS16 (11746705_a_at) / Fold change /veh RGS16 (11746705_a_at) / RFU VCAN (11755009_s_at) / Fold change /veh VCAN (11755009_s_at) / RFU RHOB (11743442_s_at) / Fold change /veh RHOB (11743442_s_at) / RFU RGS16 (11720943_a_at) / Fold change /veh RGS16 (11720943_a_at) / RFU RGS16 (11720944_at) / Fold change /veh RGS16 (11720944_at) / RFU, VPS4B / Fold change vs veh, VPS4B / RFU, CREB1 / Fold change vs veh, CREB1 / RFU, DNAJC13 / Fold change vs veh, DNAJC13 / RFU, GNAQ / Fold change vs veh, GNAQ / RFU, CDK5R1 / Fold change vs veh, CDK5R1 / RFU, ZRANB3 / Fold change vs veh, ZRANB3 / RFU, CUL4A / Fold change vs veh, CUL4A / RFU, CCNY / Fold change vs veh, CCNY / RFU, UFL1 / Fold change vs veh, UFL1 / RFU, COG3 / Fold change vs veh, COG3 / RFU, DIAPH2 / Fold change vs veh, DIAPH2 / RFU, SKA2 / Fold change vs veh, SKA2 / RFU, AFF3 / Fold change vs veh, AFF3 / RFU, LMF1 / Fold change vs veh, LMF1 / RFU, IPO11 / Fold change vs veh, IPO11 / RFU, DFFB / Fold change vs veh, DFFB / RFU, FOXP1 / Fold change vs veh, FOXP1 / RFU, CARD8 / Fold change vs veh, CARD8 / RFU, STRN3 / Fold change vs veh, STRN3 / RFU, ADK / Fold change vs veh, ADK / RFU, RASSF2 / Fold change vs veh, RASSF2 / RFU, WIPF1 / Fold change vs veh, WIPF1 / RFU, LARP1B / Fold change vs veh, LARP1B / RFU, RASA1 / Fold change vs veh, RASA1 / RFU, RB1 / Fold change vs veh, RB1 / RFU, PPFIA1 / Fold change vs veh, PPFIA1 / RFU, MAT2A / Fold change vs veh, MAT2A / RFU, CCT5 / Fold change vs veh, CCT5 / RFU, WDR92 / Fold change vs veh, WDR92 / RFU, CUX1 / Fold change vs veh, CUX1 / RFU, TTC7A / Fold change vs veh, TTC7A / RFU, TMEM135 / Fold change vs veh, TMEM135 / RFU, DEPTOR / Fold change vs veh, DEPTOR / RFU, CPM / Fold change vs veh, CPM / RFU, DNAJB6 / Fold change vs veh, DNAJB6 / RFU, CACNA2D3 / Fold change vs veh, CACNA2D3 / RFU, DTX4 / Fold change vs veh, DTX4 / RFU, TFCP2 / Fold change vs veh, TFCP2 / RFU, GMCL1 /// GMCL1P1 / Fold change vs veh, GMCL1 /// GMCL1P1 / RFU, AEBP2 / Fold change vs veh, AEBP2 / RFU, SNHG1 /// SNORD22 /// SNORD25 /// SNORD26 /// SNORD27 /// SNORD28 /// SNORD29 /// SNORD31 / Fold change vs veh, SNHG1 /// SNORD22 /// SNORD25 /// SNORD26 /// SNORD27 /// SNORD28 /// SNORD29 /// SNORD31 / Fold change (Aza/veh), C12orf56 (ProbeSet 11735607_a_at) / Fold change (ACY-1035/veh), C12orf56 (ProbeSet 11735607_a_at) / Fold change (Aza/veh), FGFR1OP (ProbeSet 11751329_s_at) / Fold change (ACY-1035/veh), FGFR1OP (ProbeSet 11751329_s_at) / Fold change (Aza/veh), VPS36 (ProbeSet 11739960_a_at) / Fold change (ACY-1035/veh), VPS36 (ProbeSet 11739960_a_at) / RFU SYPL1 (11715823_x_at) / Fold change /veh SYPL1 (11715823_x_at) / RFU IGFBP7 (11715501_s_at) / Fold change /veh IGFBP7 (11715501_s_at) / RFU REEP3 (11722064_at) / Fold change /veh REEP3 (11722064_at) / RFU IGLL1 (11728026_x_at) / Fold change /veh IGLL1 (11728026_x_at): dose or concentration left out as unconfirmed
Conditions: MV-4-11 cells, 48 hours

Nc1ccc(-c2cccs2)cc1NC(=O)c1ccc2c(c1)cc(C1CC1)n2CCN1CCOCC1 [ACY-1035]
RFU GSTM3 (11746129_a_at): 10.76 RFU
